We go through two molecules from patent US8012504B2 (priority 2000, dated 2011).

A short description of series [1]: clinical. Type of series: in vivo, human. An excerpt: In another study drug interaction potential for combination drugs was examined.
Series [2] in a line: clinical. The settings on record: human, in vivo, 1200 mg.
For series [3] the following is noted: in vivo; cited from earlier work.

Counter-ions that a name gives are not always drawn.

Turning to `COc1ccccc1OCC(O)CO` (centres unmarked) [Guaifenesin, 3-(2-methoxyphenoxy)-1,2-propanediol], the area under the curve AUC(0-t) in the series “clinical [1]” (human, in vivo, 1200 mg, Guaifenesin AUC0-t) is 7060 ng·h/mL; in the series “clinical [2]” (Guaifenesin AUC0-t), 8350 ng·h/mL. Besides, the AUC(0-inf) was found to be 7280 ng·h/mL in the series “clinical [1]” (human, in vivo, 1200 mg, Guaifenesin AUCinf) and 8830 ng·h/mL in “clinical [2]” (Guaifenesin AUCinf). The clearance in “clinical [1]” (human, in vivo, 1200 mg, Guaifenesin Clearance) is 2750 mL/min; in “clinical [2]” (Guaifenesin Clearance), 2270 mL/min. Further, the Cmax in the series “clinical [1]” (human, in vivo, 1200 mg, Guaifenesin Cmax) came out at 1700 ng/mL; in the series “clinical [2]” (Guaifenesin Cmax) it was 1920 ng/mL. Also, the half-life was 169 min in “clinical [1]” (human, in vivo, 1200 mg, Guaifenesin Half-life) and 182 min in the series “clinical [2]” (Guaifenesin Half life). The Tmax amounted to 0.75 h in the series “clinical [1]” (human, in vivo, 1200 mg, Guaifenesin Tmax) and 45 min in “clinical [2]” (Guaifenesin Tmax). For the same molecule, the typical plasma half-life result in series [3] is “approximately one”.
As to `CN[C@@H](C)[C@@H](O)c1ccccc1` [Pseudoephedrine, Pseudoephedrine hydrochloride], the AUC(0-t) was 4020 ng·h/mL in the series “clinical [1]” (human, in vivo, po, 120 mg, Pseudoephedrine AUC0-t, mean, Treatment B: 120 mg pseudoephedrine HCl alone (Sudafed 12 Hour), overnight fast); 3920 ng·h/mL in the series “clinical [1]” (human, in vivo, po, 120 mg, Pseudoephedrine AUC0-t, mean, Treatment C: 120 mg pseudoephedrine HCl along with 1200 mg guaifenesin (Sudafed 12 Hour + Mucinex), overnight fast); 3820 ng·h/mL in “clinical [1]” (human, in vivo, po, 120 mg, Pseudoephedrine AUC0-t, median, Treatment B: 120 mg pseudoephedrine HCl alone (Sudafed 12 Hour), overnight fast); 3930 ng·h/mL in the series “clinical [1]” (human, in vivo, po, 120 mg, Pseudoephedrine AUC0-t, median, Treatment C: 120 mg pseudoephedrine HCl along with 1200 mg guaifenesin (Sudafed 12 Hour + Mucinex), overnight fast). For the same molecule, the total exposure AUC(0-inf) turned out to be 4500 ng·h/mL in “clinical [1]” (human, in vivo, po, 120 mg, Pseudoephedrine AUCinf, mean, Treatment B: 120 mg pseudoephedrine HCl alone (Sudafed 12 Hour), overnight fast); 4400 ng·h/mL in the series “clinical [1]” (human, in vivo, po, 120 mg, Pseudoephedrine AUCinf, mean, Treatment C: 120 mg pseudoephedrine HCl along with 1200 mg guaifenesin (Sudafed 12 Hour + Mucinex), overnight fast); 4430 ng·h/mL in the series “clinical [1]” (human, in vivo, po, 120 mg, Pseudoephedrine AUCinf, median, Treatment B: 120 mg pseudoephedrine HCl alone (Sudafed 12 Hour), overnight fast); 4250 ng·h/mL in “clinical [1]” (human, in vivo, po, 120 mg, Pseudoephedrine AUCinf, median, Treatment C: 120 mg pseudoephedrine HCl along with 1200 mg guaifenesin (Sudafed 12 Hour + Mucinex), overnight fast). Besides, the Cmax in “clinical [1]” (human, in vivo, po, 120 mg, Pseudoephedrine Cmax, mean, Treatment B: 120 mg pseudoephedrine HCl alone (Sudafed 12 Hour), overnight fast) is 296 ng/mL; in the series “clinical [1]” (human, in vivo, po, 120 mg, Pseudoephedrine Cmax, mean, Treatment C: 120 mg pseudoephedrine HCl along with 1200 mg guaifenesin (Sudafed 12 Hour + Mucinex), overnight fast), 289 ng/mL; in “clinical [1]” (human, in vivo, po, 120 mg, Pseudoephedrine Cmax, median, Treatment B: 120 mg pseudoephedrine HCl alone (Sudafed 12 Hour), overnight fast) it was 298 ng/mL; in “clinical [1]” (human, in vivo, po, 120 mg, Pseudoephedrine Cmax, median, Treatment C: 120 mg pseudoephedrine HCl along with 1200 mg guaifenesin (Sudafed 12 Hour + Mucinex), overnight fast) it was 286 ng/mL. For the same molecule, the half-life is 363 min in “clinical [1]” (human, in vivo, po, 120 mg, Pseudoephedrine Half-life, mean, Treatment B: 120 mg pseudoephedrine HCl alone (Sudafed 12 Hour), overnight fast); 362 min in “clinical [1]” (human, in vivo, po, 120 mg, Pseudoephedrine Half-life, mean, Treatment C: 120 mg pseudoephedrine HCl along with 1200 mg guaifenesin (Sudafed 12 Hour + Mucinex), overnight fast); 349 min in the series “clinical [1]” (human, in vivo, po, 120 mg, Pseudoephedrine Half-life, median, Treatment B: 120 mg pseudoephedrine HCl alone (Sudafed 12 Hour), overnight fast); 338 min in “clinical [1]” (human, in vivo, po, 120 mg, Pseudoephedrine Half-life, median, Treatment C: 120 mg pseudoephedrine HCl along with 1200 mg guaifenesin (Sudafed 12 Hour + Mucinex), overnight fast). The time of peak concentration (Tmax) in “clinical [1]” (human, in vivo, po, 120 mg, Pseudoephedrine Tmax, mean, Treatment B: 120 mg pseudoephedrine HCl alone (Sudafed 12 Hour), overnight fast) stood at 6.17 h; in the series “clinical [1]” (human, in vivo, po, 120 mg, Pseudoephedrine Tmax, mean, Treatment C: 120 mg pseudoephedrine HCl along with 1200 mg guaifenesin (Sudafed 12 Hour + Mucinex), overnight fast), 5.75 h; in the series “clinical [1]” (human, in vivo, po, 120 mg, Pseudoephedrine Tmax, median, Treatment B: 120 mg pseudoephedrine HCl alone (Sudafed 12 Hour), overnight fast), 6 h; in the series “clinical [1]” (human, in vivo, po, 120 mg, Pseudoephedrine Tmax, median, Treatment C: 120 mg pseudoephedrine HCl along with 1200 mg guaifenesin (Sudafed 12 Hour + Mucinex), overnight fast), 6 h. Further, the “Pseudoephedrine Clearance” value in the series “clinical [1]” (mean, Treatment B: 120 mg pseudoephedrine HCl alone (Sudafed 12 Hour), overnight fast) turned out to be 23.66 L/h; in “clinical [1]” (mean, Treatment C: 120 mg pseudoephedrine HCl along with 1200 mg guaifenesin (Sudafed 12 Hour + Mucinex), overnight fast), 24.30 L/h; in the series “clinical [1]” (median, Treatment B: 120 mg pseudoephedrine HCl alone (Sudafed 12 Hour), overnight fast), 22.20 L/h; in “clinical [1]” (median, Treatment C: 120 mg pseudoephedrine HCl along with 1200 mg guaifenesin (Sudafed 12 Hour + Mucinex), overnight fast), 23.16 L/h. For the same molecule, the mean elimination half-life in series [3] was 4 to 6 h.
